Assay results from patent publication US20070254882A1, “Sulfamide Derivatives and Pharmaceutical Composition for Upregulation of Lipid Metabolism Comprising Same” (CRYSTAL GENOMICS, INC., priority 2004, published 2007).

Experiments:
ob/ob mice [1] = test: Oral glucose tolerance test (OGTT) in ob/ob mice; assay type: in vivo; conditions: for total changes in the glucose concentration represented by AUC compared to the control group / glucose concentration at 30 and 60 min after the glucose administration compared to the control group: 2 g/kg glucose; for total changes in the glucose concentration represented by AUC compared to the control group: 0-120 min, P<0.05, P<0.005 and P<0.01, FIG. 3b; for glucose concentration during the fast compared to the control group: ob/ob mice, 28 days, fasted 16 hours, P<0.05, FIG. 3c; for glucose concentration at 30 and 60 min after the glucose administration compared to the control group: P<0.01, P<0.05, FIG. 3a
Procedure: (§1) In order to evaluate the anti-obesity activity of the inventive compound, B6.V-Lepob/J mice (laboratory animal team of Korea Research Institute of Chemical Technology) were used for tests and lean mice as a control. Ob/ob mice are model animals for insulin-independent diabetes, suitable for studying the effect of an anti-obesity drug.
(§2) 42 mice weighing 38.6±1.4 g were selected randomly from a pool of ob/ob mice (7-9 weeks old), and divided into groups of 7 mice each. The test was carried out at a constant temperature (24±0.5° C.) and humidity (55±5%) using ventilation system (10-12 times/hour), under a specific pathogen free (SPF) condition created in an automatic on-off cycle of 12 hours.
(§3) The groups were divided to a control group treated only with an excipient, a positive control group treated with fenofibrate, and test groups treated with each of the compounds of Examples 5, 62 and 65, at dosage 100 mg/10 ml/kg body weight. Each of the test and control compounds was diluted with 0.5% CMC to a concentration to match the above dosage, and administered orally using a syringe into the stomach twice a day (9:00 and 18:00) for a period of 4 weeks, and the following characteristics were measured.
4) Oral Glucose Tolerance Test (OGTT)
28 days after the administration, each of the experimental mice was fasted for 16 hours, 2 g/kg of glucose was administered thereto, a blood sample was collected from the ocular venous plexus thereof at 0, 15, 30, 60 and 120 min from the administration, and the glucose concentration and AUC (area under the curve, Skrumsager et al., J Clin Pharmacol. 43, 1244-1256, 2003) were determined.

human PPAR α = biological target: T1, human PPAR α (Homo sapiens, UniProt Q07869); test: Exogeneous PPAR α agonist assay (GAL4 DNA binding domain/PPAR α ligand binding domain, luciferase) in 293T cells; assay type: cell-based; set-up: scale not given here; conditions: 25 μM compound, 48 hours, luciferase activity increase relative to the control
T1 construct: expressed in transfected cells; host or cells: HepG2 (ATCC HB-8065) or 293T cells (ATCC CRL-1573)
T1 sequence (Q07869 239-466 limits assumed): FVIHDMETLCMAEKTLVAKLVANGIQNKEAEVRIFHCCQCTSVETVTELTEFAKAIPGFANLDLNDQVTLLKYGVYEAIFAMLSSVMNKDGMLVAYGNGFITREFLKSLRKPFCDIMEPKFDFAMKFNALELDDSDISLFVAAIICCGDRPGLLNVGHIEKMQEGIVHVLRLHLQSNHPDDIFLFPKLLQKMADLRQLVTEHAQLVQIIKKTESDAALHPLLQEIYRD
Summary of the method: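 HepG2 or 293T cells (2×10^4/well) lipofectamine-transfected 3 hours with PPAR α, UAS firefly-luciferase and Renilla-luciferase constructs. Compounds then added at 25 μM final and incubated 48 hours at 37° C. PPAR α activation measured as dual firefly/Renilla luciferase luminescence.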

ob/ob mice [2] = test: Anti-obesity test: dissection, fat weights in ob/ob mice; assay type: in vivo; conditions: ob/ob mice after completing all tests; for adiposity index (fat weight/(body weight—fat weight)): FIG. 4b; for total fat weight: P<0.01, P<0.005, FIG. 4a
Procedure: as §1, §2, §3
After completing all tests, each of the mice in test treated with the compounds of Examples 5 and 62 and the positive control group treated with fenofibrate was sacrificed, the whole blood, liver, muscle and white adipose tissue thereof were extracted. White adipose tissued was divided into visceral fat and subcutaneous fat, and the amounts of the total fats and liver tissue were weighed separately.

ob/ob mice [3] = test: Anti-obesity test: feed intake in ob/ob mice; assay type: in vivo; conditions: 100 mg/kg oral twice a day, first week of the test, P<0.005, FIG. 1a
Procedure: as §1, §2, §3
1) General Symptoms and Observation of Dead Animal
The conditions, behavioral changes, addictive symptoms and the death rate were observed constantly during the test period.

ob/ob mice [4] = test: Anti-obesity test: lipid metabolism-related materials and glucose in blood of ob/ob mice; assay type: in vivo; conditions: 28 days; for GLU (glucose) / HDL (HDL-cholesterol) / LDL (LDL-cholesterol) / NEFA (free fatty acid) / TG (triglyceride): 100 mg/kg oral twice a day, fasted 16 hours, plasma
Procedure: as §1, §2, §3
3) Measurement of Lipid Metabolism-Related Materials and Insulin Concentration in Blood
28 days after the administration, experimental mice were fasted for 16 hours, and the concentrations of lipid metabolism-related materials such as triglyceride, free fatty acid and cholesterol, and insulin in blood were measured. Specifically, a blood sample was collected from the ocular venous plexus of each mouse and centrifuged to separate plasma. The glucose (GLU), HDL-cholesterol (HDL), LDL-cholesterol (LDL), triglyceride (TG) and free fatty acid (NEFA) levels were measured by enzymatic assay using 2 kinds of Selectra (Vital Lab), an automatic biochemical analyzer, and the insulin concentration was measured by ELISA using an insulin detection kit (Shibayagi).

ob/ob mice [5] = test: Anti-obesity test: body weight measurement in ob/ob mice; assay type: in vivo; conditions: 100 mg/kg oral twice a day
Procedure: as §1, §2, §3
2) Body Weight Measurement
The average body weight of each group was measured every 3 days after the administration, and the changes in the average body weight and body weight gain (measured body weight—initial body weight) were analyzed.

Compound: Cc1oc(-c2ccc(C(F)(F)F)cc2)nc1COc1cccc(CN(CC(=O)O)S(=O)(=O)N(C)C)c1 [Example 5, [N—(N,N-dimethylamino)sulfonyl-N-[3-[[2-(4-trifluoromethylphenyl)-5-methyloxazol-4-yl]methoxy]benzyl]amino]acetic acid]
- total changes in the glucose concentration represented by AUC compared to the control group (ob/ob mice [1]): much lower
- glucose concentration during the fast compared to the control group (ob/ob mice [1]): significantly low
- Activity at 25 μM Step 1 293T cell (human PPAR α): 2
- weight of subcutaneous fat (ob/ob mice [2]): reduced
- weight of visceral fat (ob/ob mice [2]): reduced
- adiposity index (fat weight/(body weight—fat weight)) (ob/ob mice [2]): reduced
- total fat weight (ob/ob mice [2]): low
- daily feed intake compared to the control group (ob/ob mice [3]): significantly reduced
- GLU (glucose) (ob/ob mice [4]): 218.1 ± 125.5 mg/dL
- HDL (HDL-cholesterol) (ob/ob mice [4]): 292.1 ± 24.7 mg/dL
- LDL (LDL-cholesterol) (ob/ob mice [4]): 24.3 ± 4.3 mg/dL
- NEFA (free fatty acid) (ob/ob mice [4]): 880 ± 273 UEq/l
- TG (triglyceride) (ob/ob mice [4]): 47.3 ± 12.4 mg/dL
- GLU concentration compared to the control or positive control group (ob/ob mice [4]): much lower
- LDL concentration (ob/ob mice [4]; P<0.05): low

Compound: Cc1ccc(-c2nc(CCOc3cccc(CN(CC(=O)O)S(=O)(=O)N(C)C)c3)c(C)o2)cc1 [Example 62, [N—(N,N-dimethylamino)sulfonyl-N-[3-[2-[2-(4-methylphenyl)-5-methyloxazol-4-yl]ethoxy]benzyl]amino]acetic acid]
- total changes in the glucose concentration represented by AUC compared to the control group (ob/ob mice [1]): much lower
- glucose concentration at 30 and 60 min after the glucose administration compared to the control group (ob/ob mice [1]): significantly low
- glucose concentration during the fast compared to the control group (ob/ob mice [1]): significantly low
- Activity at 25 μM Step 1 293T cell (human PPAR α): 2
- weight of subcutaneous fat (ob/ob mice [2]): reduced
- weight of visceral fat (ob/ob mice [2]): reduced
- adiposity index (fat weight/(body weight—fat weight)) (ob/ob mice [2]): reduced
- total fat weight (ob/ob mice [2]): low
- daily feed intake compared to the control group (ob/ob mice [3]): significantly reduced
- GLU (glucose) (ob/ob mice [4]): 190.4 ± 77.6 mg/dL
- HDL (HDL-cholesterol) (ob/ob mice [4]): 381.8 ± 40.1 mg/dL
- LDL (LDL-cholesterol) (ob/ob mice [4]): 37.8 ± 5.2 mg/dL
- NEFA (free fatty acid) (ob/ob mice [4]): 976 ± 238 UEq/l
- TG (triglyceride) (ob/ob mice [4]): 37.9 ± 6.6 mg/dL
- GLU concentration compared to the control or positive control group (ob/ob mice [4]): much lower
- HDL concentration (ob/ob mice [4]): high
- triglyceride concentration compared to a control (ob/ob mice [4]; P<0.05): significantly lower
- body weight effect compared to the positive control group treated with fenofibrate (ob/ob mice [5]): improved effect
- change in the body weight gain compared to the control group (ob/ob mice [5]; at day 7 from the administration, P<0.01): evidently lower
- change in the average body weight compared to the control group (ob/ob mice [5]; at day 10 from the administration, P<0.01, P<0.005): markedly reduced

Compound: Cc1oc(-c2ccc(C(F)(F)F)cc2)nc1CCOc1cccc(CN(CC(=O)O)S(=O)(=O)N(C)C)c1 [Example 65, [N—(N,N-dimethylamino)sulfonyl-N-[3-[2-[2-(4-trifluoromethylphenyl)-5-methyloxazol-4-yl]ethoxy]benzyl]amino]acetic acid]
- total changes in the glucose concentration represented by AUC compared to the control group (ob/ob mice [1]): much lower
- glucose concentration at 30 and 60 min after the glucose administration compared to the control group (ob/ob mice [1]): significantly low
- glucose concentration during the fast compared to the control group (ob/ob mice [1]): significantly low
- Activity at 25 μM Step 1 293T cell (human PPAR α): 1
- daily feed intake compared to the control group (ob/ob mice [3]): significantly reduced
- GLU (glucose) (ob/ob mice [4]): 158.8 ± 44.0 mg/dL
- HDL (HDL-cholesterol) (ob/ob mice [4]): 321.4 ± 31.8 mg/dL
- LDL (LDL-cholesterol) (ob/ob mice [4]): 33.0 ± 9.3 mg/dL
- NEFA (free fatty acid) (ob/ob mice [4]): 1,006 ± 203 UEq/l
- TG (triglyceride) (ob/ob mice [4]): 45.9 ± 4.7 mg/dL
- GLU concentration compared to the control or positive control group (ob/ob mice [4]): much lower
- HDL concentration (ob/ob mice [4]): high
